# Reference: patent US20060058372A1, “N-Benzodioxolyl, n-benzodioxanyl and n-benzodioxepinyl arylcarboxamide derivatives and pharmaceutical compositions comprising them” (priority 2002, published 2006)
# Key:
# [1] = tested on: apo B secretion in HepG2 cells; assay: Inhibition of apo B secretion in the HepG2 human cell line (sandwich ELISA); format: cell-based; conditions: 24 hours incubation, culture supernatant, ELISA specific for human apo B, read-out: IC50 (concentration that produces a 50% inhibition of apo B secretion in the HepG2 cells)
# Procedure: Analysis of the secretion of apo B in the HepG2 human cell line:
# The activity of a compound according to the invention can be evaluated by measuring the inhibition of apo B secretion in HepG2 cells.
# The HepG2 cells (ECACC—No. 85011430) are used as model in the study of the in vitro hepatic secretion of lipoproteins (Dixon J. and Ginsberg H.-J. Lipid. Res.—1993, 34:167-179).
# The HepG2 cells are cultured in Dulbecco's modified Eagle's medium comprising 10% foetal calf serum (DMEM and FBS-Gibco) in 96-well plates under an atmosphere of 5% carbon dioxide for 24 hours (about 70% confluence).
# The test compounds are dissolved at a concentration of 2 or 10 mM in dimethyl sulfoxide (DMSO). Serial dilutions (1:3.16) are made in DMSO and are added (1:200—Robot Multimek Beckman) to the growth medium (200 microlitres) and then finally incubated for 24 hours in the various wells containing the HepG2 cells.
# The 24-hour culture supernatant diluted to 1:5 (phosphate-buffered saline: PBS comprising 1% bovine serum albumin) is tested according to a sandwich-ELISA method specific for human apo B.
# The results are expressed in terms of IC50, i.e. the concentration that produces a 50% inhibition of apo B secretion in the HepG2 cells.
# [2] = target: T1, microsomal triglyceride transfer protein (MTP) (Mesocricetus auratus, UniProt P55158); assay: Inhibition of MTP activity: transfer of [3H]-triolein from donor liposomes to biotinylated LDL (SPA); format: biochemical; conditions: MTP from golden hamster liver microsomes; incubation 18-24 hours at 37° C.; read-out: IC50 (concentration that allows a 50% inhibition of MTP)
# T1 construct: The supernatant comprising the soluble MTP is dialysed; from tissue; host or cells: golden hamster liver microsomes, deoxycholate-solubilised
# T1 sequence (P55158 19-895): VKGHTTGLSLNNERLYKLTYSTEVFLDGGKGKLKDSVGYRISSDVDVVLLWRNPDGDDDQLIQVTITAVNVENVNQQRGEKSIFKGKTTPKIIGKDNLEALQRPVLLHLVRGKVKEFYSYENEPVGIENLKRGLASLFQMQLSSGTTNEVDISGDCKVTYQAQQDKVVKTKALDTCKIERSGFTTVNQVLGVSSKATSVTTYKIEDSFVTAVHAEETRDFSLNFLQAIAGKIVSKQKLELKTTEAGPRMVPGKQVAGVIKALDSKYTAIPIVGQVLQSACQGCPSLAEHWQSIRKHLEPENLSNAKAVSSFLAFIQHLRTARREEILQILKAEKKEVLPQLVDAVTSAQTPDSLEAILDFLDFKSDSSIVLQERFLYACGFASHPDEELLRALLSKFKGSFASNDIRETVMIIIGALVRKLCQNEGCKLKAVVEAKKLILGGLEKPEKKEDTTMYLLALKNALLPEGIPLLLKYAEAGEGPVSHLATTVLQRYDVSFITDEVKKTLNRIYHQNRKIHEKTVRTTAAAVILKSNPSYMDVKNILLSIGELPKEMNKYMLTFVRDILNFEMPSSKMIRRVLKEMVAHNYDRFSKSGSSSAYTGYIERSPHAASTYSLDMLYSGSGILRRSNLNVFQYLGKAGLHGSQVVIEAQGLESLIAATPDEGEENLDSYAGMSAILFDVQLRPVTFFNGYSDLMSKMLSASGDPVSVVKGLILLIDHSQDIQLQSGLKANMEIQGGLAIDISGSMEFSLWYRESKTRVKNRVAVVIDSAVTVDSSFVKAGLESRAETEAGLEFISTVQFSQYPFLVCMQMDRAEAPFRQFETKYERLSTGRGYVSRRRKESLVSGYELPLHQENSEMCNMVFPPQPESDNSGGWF
# T1 sequence (Q8R4U2 20-509 partner): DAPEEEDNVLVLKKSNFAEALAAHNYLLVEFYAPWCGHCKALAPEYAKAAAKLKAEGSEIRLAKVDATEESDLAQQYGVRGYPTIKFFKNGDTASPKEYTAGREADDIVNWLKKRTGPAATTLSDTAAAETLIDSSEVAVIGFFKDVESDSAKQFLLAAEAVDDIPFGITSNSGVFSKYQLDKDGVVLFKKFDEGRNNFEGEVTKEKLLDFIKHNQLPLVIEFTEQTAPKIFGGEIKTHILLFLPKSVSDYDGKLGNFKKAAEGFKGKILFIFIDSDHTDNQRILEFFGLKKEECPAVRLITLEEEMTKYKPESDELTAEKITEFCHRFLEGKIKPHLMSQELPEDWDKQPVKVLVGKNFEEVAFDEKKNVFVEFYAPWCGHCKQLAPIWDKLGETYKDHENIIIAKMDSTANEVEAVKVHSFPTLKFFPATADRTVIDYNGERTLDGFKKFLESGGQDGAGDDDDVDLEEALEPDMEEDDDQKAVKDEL
# Procedure: Analysis of the Inhibition of MTP Activity
# The inhibition of the activity of microsomal triglyceride transfer protein (MTP) was tested by using the following operating protocol.
# The inhibition of MTP activity with a compound can be quantified by observing the inhibition of the transfer of a labelled triglyceride, from a donor particle to an acceptor particle, in the presence of MTP. The procedure for the preparation of MTP is based on the method by Wetterau and Zilversmit (Biochem. Biophys. Acta (1986) 875: 610). A few grams of golden hamster liver are taken and then rinsed several times in a 250 mM sucrose solution at 0° C. All the following steps proceed at +4° C. A homogenate at a concentration of 50% in 250 mM sucrose is prepared using a Teflon mill and then centrifuged for 10 minutes at 10 000×g at +4° C. The supernatant is then centrifuged at 105 000×g for 75 minutes at +4° C. The supernatant is discarded and the microsomal pellet is taken up in 3 ml (per g of starting liver) of Tris/HCl 150 mM pH 8.0. 1 ml aliquot fractions are stored at −80° C. until the time of use.
# After thawing a fraction of microsomes (1 ml), 12 ml of refrigerated Tris/HCl 50 mM, KCl 50 mM, MgCl2 5 mM pH 7.4 buffers and 1.2 ml of deoxycholate (0.54% in water) are added. After incubation for 30 minutes at +4° C. with gentle agitation, the suspension is centrifuged at 105 000×g for 75 minutes. The supernatant comprising the soluble MTP is dialysed against Tris/HCl 150 mM, NaCl 40 mM, EDTA 1 mM, 0.02% sodium azide pH 7.4 buffer (5 times one litre over 2-3 days). The MTP is stored at +4° C., is stable for at least 30 days and is used in unmodified form in the test.
# The donor particles (liposomes) are prepared from 208 μl of L-phosphatidylcholine at a concentration of 10 mg/ml in chloroform, and 480 μl of [3H]-triolein at a concentration of 0.5 mCi/ml in toluene. After stirring, the solution is evaporated under nitrogen, taken up in 6 ml of Tris/HCl 50 mM, KCl 50 mM, MgCl2 5 mM pH 7.4 buffer and incubated in an ultrasound bath for 30 minutes at room temperature. The liposomes are stored at +4° C. and sonicated again for 10 minutes before each use.
# The acceptor particles are biotinylated low density lipoproteins (LDL-biot). These particles are supplied by the company Amersham.
# The reaction mixture is prepared in untreated ½ well white plates (Corning Costar) by addition, in the following order, of: 5 μl of HEPES 50 mM, NaCl 150 mM, BSA 0.1% (w/v), 0.05% sodium azide (w/v), pH 7.4 buffer; 5 μl of liposomes; 5 μl of LDL-biot; 5 μl of test products in DMSO; 5 μl of MTP. After incubation for 18-24 hours at 37° C., the reaction is stopped by adding 100 μl of Amersham SPA (Scintillation Proximity Assay) beads coupled to streptavidin, and the radioactivity is counted using a Top Count (Packard) at least one hour later. The inhibition of the transfer of the triglycerides with a compound is reflected by a reduction in the transferred radioactivity.
# The results are expressed in terms of the IC50, i.e. the concentration that allows a 50% inhibition of MTP.
smiles,measurement,setting,value
"COCC1COc2ccc(NC(=O)c3ccccc3-c3ccc(C(C)C)cc3)cc2O1 (stereo not drawn) [Example 20, 4′-isopropylbiphenyl-2-carboxylic acid (3-methoxymethyl-2,3-dihydrobenzo[1,4]dioxin-6-yl)amide]",IC50,[1],65 nM
"CCNC(=O)OCC1COc2ccc(NC(=O)c3ccccc3-c3ccc(C(C)C)cc3)cc2O1 (stereo not drawn) [Example 21, 7-[(4′-isopropylbiphenyl-2-carbonyl)amino]-2,3-dihydrobenzo[1,4]dioxin-2-ylmethyl ethylcarbamate]",IC50,[1],197 nM
"CCc1ccc(-c2ccccc2C(=O)Nc2ccc3c(c2)OC(F)(F)O3)cc1 [Example 32, 4′-ethylbiphenyl-2-carboxylic acid (2,2-difluorobenzo[1,3]dioxol-5-yl)-amide]",IC50,[1],97 nM
"CC(C)c1ccc(-c2ccccc2C(=O)Nc2ccc3c(c2)OC(F)(F)O3)cc1 [Example 33, (4′-isopropylbiphen-2-yl)-N-(2,2-difluorobenzo[1,3]dioxol-5-yl)carboxamide]",IC50,[1],68 nM
same,IC50,[2],230 nM
"O=C(Nc1ccc2c(c1)OC(F)(F)O2)c1ccccc1-c1ccc(OC(F)(F)F)cc1 [Example 40, 5-(4′-trifluoromethoxybiphen-2-ylcarbonylamino)-2,2-difluorobenzo[1,3]-dioxole]",IC50,[2],220 nM
"CC(C)c1ccc(-c2ccccc2C(=O)Nc2ccc3c(c2)OCO3)cc1 [Example 41, 5-(4′-isopropylbiphen-2-ylcarbonylamino)benzo[1,3]dioxole]",IC50,[1],129 nM
"CCc1ccc(-c2cccc(C)c2C(=O)Nc2ccc3c(c2)OC(F)(F)O3)cc1 [Example 42, 5-(4′-ethyl-3-methylbiphen-2-ylcarbonylamino)-2,2-difluorobenzo[1,3]-dioxole]",IC50,[2],270 nM
"CCNC(=O)OCCc1ccc(-c2ccccc2C(=O)Nc2ccc3c(c2)OC(F)(F)O3)cc1 [Example 48, 5-(4′-ethylaminocarbonyloxyethylbiphen-2-ylcarbonylamino)-2,2-difluorobenzo[1,3]dioxole]",IC50,[2],340 nM
"Cc1cccc(-c2ccc(OC(F)(F)F)cc2)c1C(=O)Nc1ccc2c(c1)OC(F)(F)O2 [Example 49, 5-(4′-trifluoromethoxy-3-methylbiphen-2-ylcarbonylamino)-2,2-difluorobenzo[1,3]dioxole]",IC50,[1],302 nM
same,IC50,[2],136 nM
"O=C(Nc1ccc2c(c1)OCO2)c1ccccc1-c1ccc(OC(F)(F)F)cc1 [Example 51, 4′-trifluoromethoxybiphenyl-2-carboxylic acid benzo[1,3]dioxol-5-ylamide]",IC50,[1],72 nM
"O=C(Nc1ccc2c(c1)OC(F)(F)O2)c1ccccc1-c1ccc(CCO)cc1 [Example 53, 4′-(2-hydroxyethyl)biphenyl-2-carboxylic acid (2,2-difluorobenzo[1,3]-dioxol-5-yl)amide]",IC50,[1],195 nM
"CC(C)Cc1ccc(-c2ccccc2C(=O)Nc2ccc3c(c2)OC(F)(F)O3)cc1 [Example 57, 4′-isobutylbiphenyl-2-carboxylic acid (2,2-difluorobenzo[1,3]dioxol-5-yl)-amide]",IC50,[1],219 nM
"CC(C)=Cc1ccc(-c2ccccc2C(=O)Nc2ccc3c(c2)OC(F)(F)O3)cc1 [Example 69, 4′-(2-methylpropenyl)biphenyl-2-carboxylic acid (2,2-difluorobenzo[1,3]-dioxol-5-yl)amide]",IC50,[1],288 nM
CC(C)c1ccc(-c2c(Cl)cccc2C(=O)Nc2ccc3c(c2)OC(F)(F)O3)cc1 [Example 90],IC50,[1],30 nM
same,IC50,[2],44 nM
O=C(Nc1ccc2c(c1)OC(F)(F)O2)c1cccc(Cl)c1-c1ccc(OC(F)(F)F)cc1 [Example 91],IC50,[1],213 nM
same,IC50,[2],223 nM
"Cc1cccc(C(=O)Nc2ccc3c(c2)OC(F)(F)O3)c1-c1ccc(CCOCc2ccccc2)cc1 [Example 93, 4′-(2-benzyloxyethyl)-6-methylbiphenyl-2-carboxylic acid (2,2-difluorobenzo[1,3]dioxol-5-yl)amide]",IC50,[1],65 nM
same,IC50,[2],61 nM
COc1cccc(C(=O)Nc2ccc3c(c2)OC(F)(F)O3)c1-c1ccc(OC(F)(F)F)cc1 [Example 94],IC50,[1],66 nM
same,IC50,[2],193 nM
CCNC(=O)OCCc1ccc(-c2c(C)cccc2C(=O)Nc2ccc3c(c2)OC(F)(F)O3)cc1 [Example 98],IC50,[2],312 nM
